Reference: ChEMBL document CHEMBL1156551, “Chlorohydroaspyrones A and B, antibacterial aspyrone derivatives from the marine-derived fungus Exophiala sp” (2008)
≈ marks a conversion by molar mass, not a printed value.

Columns and labels:
Format in all cases: functional
Staphylococcus aureus [1] = assay: Antibacterial activity against Staphylococcus aureus after 18 hrs by conventional 2 fold serial dilution method
Staphylococcus aureus [2] = assay: Antibacterial activity against multidrug-resistant Staphylococcus aureus after 18 hrs by conventional 2 fold serial dilution method
Staphylococcus aureus [3] = assay: Antibacterial activity against methicillin-resistant Staphylococcus aureus after 18 hrs by conventional 2 fold serial dilution method

## C[C@H](Cl)[C@@H](O)C1=C[C@H](O)[C@@H](C)OC1=O [CHLOROHYDROASPYRONE B]
Staphylococcus aureus [1]
  MIC: 62.5 mg/L (≈ 283 µM)
Staphylococcus aureus [2]
  MIC: 125 mg/L (≈ 567 µM)
Staphylococcus aureus [3]
  MIC: 62.5 mg/L (≈ 283 µM)

## C[C@H](O)[C@H](Cl)C1=C[C@H](O)[C@@H](C)OC1=O [CHLOROHYDROASPYRONE A]
Staphylococcus aureus [1]
  MIC: 62.5 mg/L (≈ 283 µM)
Staphylococcus aureus [2]
  MIC: 125 mg/L (≈ 567 µM)
Staphylococcus aureus [3]
  MIC: 125 mg/L (≈ 567 µM)
